Test results: US8404618B2, “Herbicidal composition” (priority 2004, dated 2013)

Experiments:
Assay type in all cases: in vivo
wheat = experiment: Pre-emergent test on wheat (safener action); conditions: after 14 days, average value of two repetitions
Procedure: The test plants are sown in 48 well plates in a growth chamber. A sterilized standard earth is used as the culture substrate. In a pre-emergent stage, the herbicides are applied both by themselves and in a mixture with safeners to the soil surface. The application is carried out with an aqueous suspension of the test substances, prepared from a 25% wettable powder (Example F3,b), to achieve a field equivalent of 375 l/ha. The tests are evaluated after 14 days (100%=plants completely dead; 0%=no phytotoxic action on the plants).

maize (Marista 11f) = experiment: Post-emergent test on maize (safener action); conditions: post-emergent (GS 11), evaluated after 28 days
Procedure: The test plants are sown in containers under glasshouse conditions. A standard earth is used as the culture substrate. In a maize growth stage of one leaf (GS 11), the herbicides are applied both by themselves and in a mixture with safeners to the soil and leaf surface. The application is carried out with an aqueous suspension of the test substances, prepared from a 25% wettable powder (Example F3,b) or a suspension concentrate (Example F8), to achieve a field equivalent of 200 l/ha. The tests are evaluated after 28 days (100%=plants completely dead; 0%=no phytotoxic action on the plants).

maize = experiment: Pre-emergent test on maize (safener action); conditions: evaluated after 14 days
Procedure: The test plants are sown in seed troughs under greenhouse conditions. A standard earth is used as the culture substrate. In a pre-emergent stage, the herbicides are applied both by themselves and in a mixture with safeners to the soil surface. […] The tests are evaluated after 14 days (100%=plants completely dead; 0%=no phytotoxic action on the plants).

Row | Compound | phytotoxic action on the plants (100%=plants completely dead; 0%=no phytotoxic action) (wheat; herbicide alone 100 g/ha) | phytotoxic action on the plants (100%=plants completely dead; 0%=no phytotoxic action) (wheat; herbicide alone 200 g/ha) | phytotoxic action on the plants (100%=plants completely dead; 0%=no phytotoxic action) (maize (Marista 11f); herbicide alone 37.5 g/ha) | phytotoxic action on the plants (100%=plants completely dead; 0%=no phytotoxic action) (maize (Marista 11f); herbicide alone 75 g/ha) | phytotoxic action on the plants (100%=plants completely dead; 0%=no phytotoxic action) (maize (Marista 11f); herbicide alone 150 g/ha) | phytotoxic action on the plants (100%=plants completely dead; 0%=no phytotoxic action) (maize; herbicide alone 250 g/ha) | phytotoxic action on the plants (100%=plants completely dead; 0%=no phytotoxic action) (maize; herbicide alone 500 g/ha) | phytotoxic action on the plants (100%=plants completely dead; 0%=no phytotoxic action) (maize; herbicide alone 1000 g/ha)
1 | Cn1nc(C(F)(F)F)c(CS(=O)(=O)C2=NOC(C)(C)C2)c1OC(F)F [Comp. 1.27, 3-(5-difluoromethoxy-1-methyl-3-trifluoromethyl-1H-pyrazol-4-ylmethylsulfonyl)-5,5-dimethyl-4,5-dihydroisoxazole] | 25% | 50% | 0% | 10% | 40% |  |  | 
2 | CC1(C)CC(S(=O)(=O)Cc2c(F)cccc2F)=NO1 [Comp. 1.41] |  |  |  |  |  | 30% | 70% | 80%
3 | Cn1nc(C(F)(F)F)c(C[S+]([O-])C2=NOC(C)(C)C2)c1OC(F)F (stereo not drawn) [Comp. 1.57] | 90% |  |  |  |  |  |  | 
